“Also recorded” adds a separate entry of the source. Positions of bridges follow the written chain, without caps; N, C: chain ends. Non-standard residues stand in square brackets, D forms with d. Residues, ends and D or L forms follow the SMILES beside them. *: point of attachment. Ahx = NCCCCCC(=O)O; Acm = CC(=O)NC*
Assays:
20G7 antibody [1] = experiment: Calibrator standard range in BioPlex 2200 proBNP assay; assay type: binding; settings: FIGS. 14 and 15
Protocol: (§1) The CaliproBNP1 calibrator was diluted to 1 μg/mL, 0.2 μg/mL, 0.1 μg/mL, and 0.02 μg/mL, the CaliproBNP3 calibrator was diluted to 1.6 μg/mL, 0.8 μg/mL, 0.3 μg/mL, 0.06 μg/mL, the CaliproBNP5 and CaliproBNP6 calibrators were diluted to from 100 ng/ml to 0.01 ng/ml in the same 0.1 M succinate buffer, pH 7.6.

[2] = Accelerated liquid stability, BioPlex 2200 proBNP assay
Protocol: (§2) The different compounds were tested at different concentrations diluted in 0.1 M succinate buffer, pH 7.6, containing 5% BSA, 2 mM CaCl2, 10% antiproteases cocktail (Sigma reference P2714), 0.1% Proclin, 0.095% NaN3 and 0.1% sodium benzoate.
(§3) The compounds stability was studied in accelerated condition (room temperature) compared to synthetic BNP(1-32) (Sigma-Aldrich, Etats-Unis, #B-5900) and recombinant proBNP(1-108) (HyTest Ref. 8PRO8) in the following way:
(§4) Recombinant proBNP(1-108), synthetic BNP(1-32) and calibrator peptides were diluted in 0.1 M succinate buffer, pH 7.6 described above. Each solution was divided in 10 tubes placed at room temperature (20° C.±5° C.). Then one tube of each solution was frozen at J0, J+7, J+14, J+21. At J+21, the different solutions were thawed and assayed by means of the BioPlex™ 2200 proBNP assay described in Example 14 or of the immunoassays described in Examples 8.2 and 10.2.
(§5) In the BioPlex™ 2200 proBNP assay, the stability of two concentrations of proBNP(1-108), 10 ng/mL and 1 ng/mL, of CaliproBNP1, 2 μg/mL and 0.125 μg/mL and CaliproBNP3, 1 μg/mL and 0.3 μg/mL, were analyzed. In ELISA format, three concentrations of proBNP(1-108) and BNP(1-32), 1.56 ng/mL, 0.78 ng/ml and 0.39 ng/mL, and of CaliproBNP5, […], 31 ng/mL and 15.6 ng/mL, were analysed.

20G7 antibody [3] = experiment: Calibrator standard range in ELISA with 20G7 in revelation; assay type: binding; settings: FIGS. 16 and 17
Protocol: as §1

[4] = Accelerated liquid stability, ELISA format
Protocol: as §2, §3, §4, §5

BNP(1-32) = target: T1, BNP(1-32) (Homo sapiens, UniProt P16860); experiment: Immunisation of mice, ELISA of sera; assay type: in vivo; settings: Balb/c mice immunised with KLH-coupled peptide
T1 construct: BNP(1-32): synthetic peptide (Sigma-Aldrich, USA, #B-5900); purchased Sigma-Aldrich B-5900; host or cells: chemical synthesis
T1 sequence (P16860 103-134 limits assumed): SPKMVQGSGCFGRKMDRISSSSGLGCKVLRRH
Protocol: In order to produce monoclonal antibodies, ten mice (Balb/c strain females, 5 weeks old, ref: SIFE055, Charles Rivers, Mass., USA) were immunised using one of the following peptides:
For the first injection, an emulsion of 100 μg of KLH-coupled peptide (at a concentration of 1 mg/ml) diluted to ½ in Freund's complete adjuvant (Sigma, #F-5881) was prepared, and 200 μL of said emulsion (i.e. 100 μg of peptide) were injected subcutaneously into each mouse. At intervals of 20 days, three 200 μL booster shots of an emulsion of KLH-coupled peptide (i.e. 100 μg of peptide) and Freund's incomplete adjuvant (Sigma, #F-5506) were injected subcutaneously, then peritoneally, into each mouse.
An ELISA test was carried out on a solid support to detect the presence of anti-BNP(1-32) antibodies in a mouse serum sample. […]
The microplate was washed three times with 0.1% PBS-T. Each serum from previously immunised mice was subsequently diluted tenfold with 0.1% PBS-T containing 0.1% milk (semi-skimmed), then deposited on the basis of 100 μL per well and left to incubate for two hours at 37° C. […] The enzymatic reaction was stopped by adding 50 μL of sulphuric acid (H2SO4, 4 N) per well, and the OD at 490 nm was subsequently measured in each well.

[5] = room temperature, up to J0 + 21

CC[C@H](C)[C@H](NC(=O)[C@H](CCCNC(=N)N)NC(=O)[C@H](CC(=O)O)NC(=O)[C@H](CCSC)NC(=O)[C@H](CCCCN)NC(=O)[C@H](CCCNC(=N)N)NC(=O)CNC(=O)[C@H](Cc1ccccc1)NC(=O)[C@H](CO)NC(=O)CCCCCNC(=O)[C@@H](NC(=O)[C@H](CCSC)NC(=O)[C@H](CCCCN)NC(=O)[C@@H]1CCCN1C(=O)[C@H](CO)NC(=O)[C@H](CCCNC(=N)N)NC(=O)[C@@H]1CCCN1C(=O)[C@H](C)NC(=O)[C@H](CCCNC(=N)N)NC(=O)[C@H](CC(C)C)NC(=O)[C@@H](NC(=O)[C@H](Cc1ccc(O)cc1)NC(C)=O)[C@@H](C)O)C(C)C)C(=O)N[C@@H](CO)C(=O)N[C@@H](CO)C(N)=O [CaliproBNP1, Ac-YTLRAPRSPKMV-Ahx-SFGRKMDRISS-CONH2] (Ac-YTLRAPRSPKMV[Ahx]SFGRKMDRISS-NH2)
signal in the BioPlex 2200 proBNP assay (20G7 antibody [1]): increasing signal with the compound concentration

CSCC[C@H](NC(=O)[C@H](CCCCN)NC(=O)[C@H](CCCNC(=N)N)NC(=O)CNC(=O)[C@H](Cc1ccccc1)NC(=O)CCCCCNC(=O)CNC(=O)[C@H](CCC(N)=O)NC(=O)[C@@H](NC(=O)[C@H](CCSC)NC(=O)[C@H](CCCCN)NC(=O)[C@@H]1CCCN1C(=O)[C@H](CO)NC(=O)[C@H](CCCNC(=N)N)NC(=O)[C@@H]1CCCN1C(=O)[C@H](C)NC(=O)[C@H](CCCNC(=N)N)NC(=O)[C@H](CC(C)C)NC(=O)[C@@H](NC(=O)[C@H](Cc1ccc(O)cc1)NC(C)=O)[C@@H](C)O)C(C)C)C(=O)N[C@@H](CC(=O)O)C(=O)N[C@@H](CCCNC(=N)N)C(N)=O [CaliproBNP3, Ac-YTLRAPRSPKMVQG-Ahx-FGRKMDR-CONH2] (Ac-YTLRAPRSPKMVQG[Ahx]FGRKMDR-NH2)
Liquid stability at room temperature in buffer, ratio “signal at J0 + X/signal at J0” ([2]; J0 + 7, 0.3 μg/mL): 0.91
Liquid stability at room temperature in buffer, ratio “signal at J0 + X/signal at J0” ([2]; J0 + 7, 1 μg/mL): 0.92
Liquid stability at room temperature in buffer, ratio “signal at J0 + X/signal at J0” ([2]; J0 + 14, 0.3 μg/mL): 0.98
Liquid stability at room temperature in buffer, ratio “signal at J0 + X/signal at J0” ([2]; J0 + 14, 1 μg/mL): 1.02
Liquid stability at room temperature in buffer, ratio “signal at J0 + X/signal at J0” ([2]; J0 + 21, 0.3 μg/mL): 1.15
Liquid stability at room temperature in buffer, ratio “signal at J0 + X/signal at J0” ([2]; J0 + 21, 1 μg/mL): 1.06
stability compared with recombinant proBNP(1-108) [2, 5]: higher stability
signal in the BioPlex 2200 proBNP assay (20G7 antibody [1]): increasing signal with the compound concentration

CSCC[C@H](NC(=O)[C@H](CCCCN)NC(=O)[C@H](CCCNC(=N)N)NC(=O)CNC(=O)[C@H](Cc1ccccc1)NC(=O)CCCCCNC(=O)CNC(=O)[C@H](CO)NC(=O)CNC(=O)[C@H](CCC(N)=O)NC(=O)[C@@H](NC(=O)[C@H](CCSC)NC(=O)[C@H](CCCCN)NC(=O)[C@@H]1CCCN1C(=O)[C@H](CO)NC(C)=O)C(C)C)C(=O)N[C@@H](CC(=O)O)C(=O)N[C@@H](CCCNC(=N)N)C(N)=O [CaliproBNP5, Ac-SPKMVQGSG-Ahx-FGRKMDR-CONH2] (Ac-SPKMVQGSG[Ahx]FGRKMDR-NH2)
signal in the BNP(1-32) and the proBNP(1-108) assay (20G7 antibody [3]): signal increasing with the compound concentration
Liquid stability at room temperature in buffer, ratio “signal at J0 + X/signal at J0” ([4]; J0 + 7, 0.0156 ng/mL): 1.1
Liquid stability at room temperature in buffer, ratio “signal at J0 + X/signal at J0” ([4]; J0 + 7, 0.031 ng/mL): 1.06
Liquid stability at room temperature in buffer, ratio “signal at J0 + X/signal at J0” ([4]; J0 + 7, 0.0625 ng/mL): 1.02
Liquid stability at room temperature in buffer, ratio “signal at J0 + X/signal at J0” ([4]; J0 + 14, 0.0156 ng/mL): 1.01
Liquid stability at room temperature in buffer, ratio “signal at J0 + X/signal at J0” ([4]; J0 + 14, 0.031 ng/mL): 1.01
Liquid stability at room temperature in buffer, ratio “signal at J0 + X/signal at J0” ([4]; J0 + 14, 0.0625 ng/mL): 1.02
Liquid stability at room temperature in buffer, ratio “signal at J0 + X/signal at J0” ([4]; J0 + 21, 0.0156 ng/mL): 1.10
Liquid stability at room temperature in buffer, ratio “signal at J0 + X/signal at J0” ([4]; J0 + 21, 0.031 ng/mL): 1.06
Liquid stability at room temperature in buffer, ratio “signal at J0 + X/signal at J0” ([4]; J0 + 21, 0.0625 ng/mL): 1.1
stability compared with recombinant proBNP(1-108) and BNP(1-32) [4, 5]: higher stability

Ac-TGCFGRKMDRISTSTAIGCKVLCys-CONH2 (Ac-TGCFGRKMDRISTSTAIGCKVLC-NH2; disulfide 3-19; also: KLH-coupled) [SEQ ID NO: 4, immunogen peptide, coupled to KLH]
immune response / antiserum reactivity towards BNP(1-32) (BNP(1-32)): very reactive; also recorded: much greater

Ac-YTLRAPRSPKMV-Ahx-FGRKMDR-Ahx-SGLGC*KVLRRH-COOH (Ac-YTLRAPRSPKMV[Ahx]FGRKMDR[Ahx]SGLGC(Acm)KVLRRH-OH; SMILES CSCC[C@H](NC(=O)[C@H](CCCCN)NC(=O)[C@H](CCCNC(=N)N)NC(=O)CNC(=O)[C@H](Cc1ccccc1)NC(=O)CCCCCNC(=O)[C@@H](NC(=O)[C@H](CCSC)NC(=O)[C@H](CCCCN)NC(=O)[C@@H]1CCCN1C(=O)[C@H](CO)NC(=O)[C@H](CCCNC(=N)N)NC(=O)[C@@H]1CCCN1C(=O)[C@H](C)NC(=O)[C@H](CCCNC(=N)N)NC(=O)[C@H](CC(C)C)NC(=O)[C@@H](NC(=O)[C@H](Cc1ccc(O)cc1)NC(C)=O)[C@@H](C)O)C(C)C)C(=O)N[C@@H](CC(=O)O)C(=O)N[C@@H](CCCNC(=N)N)C(=O)NCCCCCC(=O)N[C@@H](CO)C(=O)NCC(=O)N[C@@H](CC(C)C)C(=O)NCC(=O)N[C@@H](CSCNC(C)=O)C(=O)N[C@@H](CCCCN)C(=O)N[C@H](C(=O)N[C@@H](CC(C)C)C(=O)N[C@@H](CCCNC(=N)N)C(=O)N[C@@H](CCCNC(=N)N)C(=O)N[C@@H](Cc1c[nH]cn1)C(=O)O)C(C)C) [CaliproBNP6, triepitopic calibrator]
signal in the BNP(1-32) and the proBNP(1-108) assay (20G7 antibody [3]): signal increasing with the compound concentration

Source: patent US11340239B2, “BNP (1-32) epitope and antibodies directed against said epitope” (Bio-Rad Europe GMBH, priority 2007, dated 2022)
